From PMC12818745 (ACS Chemical Neuroscience, 2025)

Legend:
[1] = in vitro; conditions: for Papp at 2.5 h: PAMPA, pH 7.4; for Prediction (penetration into the CNS): class from PAMPA-BBB P e
Experimental: To assess BBB permeability, a parallel artificial membrane permeability assay (PAMPA)-BBB was performed, which predicts passive BBB permeability using a brain lipid porcine membrane.
The prediction of the brain penetration was evaluated using a PAMPA-BBB. […] Next, 100 μL of these stock solutions were added to a solution of 1400 μL of EtOH and 3500 μL of PBS at pH 7.4, to reach 30% of EtOH concentration in the experiment. These solutions were filtered, using Filter PDVF membrane units (diameter 30 mm, pore size 0.45 μm, from Symta). After this, the acceptor 96-well microplate (Multiscreen, catalogue no. MAMCS9610, from Millipore) was filled with 180 μL of PBS/EtOH (70/30). […] After 5 min, 180 μL of each compound solution was added. 1–2 mg of each selected compound was dissolved in 1500 μL of EtOH and 3500 μL of PBS at pH 7.4, filtered, and then added to the donor 96-well plate to determine their ability to cross the brain barrier. After this, the donor plate was carefully put on the acceptor plate to form a “sandwich” and incubated for 2.5 h at 25 °C. During this period, the compounds diffused from the donor plate through the brain lipid membrane into the acceptor plate. Afterward, the donor plate was removed. A 96-well plate UV reader (Thermoscientific, Multiskan spectrum) was used to determine the concentration of compounds and commercial drugs in the acceptor and donor wells. Every sample was analyzed at three to five wavelengths, in three wells, and in two independent runs. […] Ten quality control compounds (previously mentioned) of known BBB permeability were included in each experiment to validate the analysis set.

[2] = biological target: T1, Tau protein aggregation (Homo sapiens, UniProt P10636); test: Thioflavin S assay of tau protein aggregation in E. coli cells overexpressing tau; type: cell-based, Escherichia coli; conditions: read-out: Tau inhibition %
T1 construct: For the cloning and overexpression of full-length tau protein; expressed in transfected cells; host or cells: E. coli BL21 (DE3) carrying pTARA and pRKT42
Experimental: (§1) The antiaggregating profiles of both series A and B were evaluated using a fluorescence Thioflavin S (ThS) assay in cellulo, which monitors ThS fluorescence in the presence of β-sheet-rich structures, such as Aβ and tau protein aggregates. This method, based on recombinant Escherichia coli (E. coli) bacteria overexpressing insoluble aggregates, offers a simple and cost-effective approach to model aggregation processes in mammalian systems and has been validated for use in drug discovery studies. , Compounds were tested at a screening concentration of 50 μM for their ability to inhibit Aβ42 aggregation. The results, summarized in Table , reveal distinct antiaggregating profiles between series A and B, which are once again influenced by their structural differences.
This strategic extension aimed to validate the chromeno[3,4-b]-xanthone scaffold for related aggregation targets, considering the structural and pathological similarities between Aβ and tau aggregation processes. […]. […] Nevertheless, it is important to interpret the results cautiously, as the inability of certain compounds to cross bacterial membranes, may have underestimated their true inhibitory activity in the assay.
For the cloning and overexpression of full-length tau protein, E. coli BL21 (DE3) competent cells were transformed first with the pTARA vector containing the RNA polymerase gene of phage T7 (T7RP), controlled by the PBAD promoter. Subsequently, E. coli BL21(DE3) competent cells containing pTARA were transformed with the pRKT42 vector encoding four repeats of tau protein in two inserts. Similar to the procedure for Aβ42, overnight cultures were prepared by inoculating colonies of BL21 (DE3) cells bearing the plasmids in M9 medium supplemented with 0.5% glucose, 50 μg mL^–1 ampicillin, and 12.5 μg mL^–1 chloramphenicol at 37 °C. Upon induction, a 1:500 dilution of the overnight culture was added to fresh M9 minimal medium containing 0.5% glucose, 50 μg mL^–1 ampicillin, 12.5 μg mL^–1 chloramphenicol, and 25 μM ThS. The subsequent steps mirrored those for the Aβ assay, including the addition of the compound to be tested dissolved in DMSO and 10 μL of 25% arabinose or, alternatively, 10 μL of water for the noninduced controls, with a final compound concentration of […]. Negative controls for tau overexpression utilized free DMSO.
(§2) ThS (T1892) and all other chemical reagents were purchased from Sigma (St. Louis, MO). Stock solutions of ThS (250 μM) were prepared using doubly distilled water purified via a Milli-Q system (Millipore). For the fluorescence assay, ThS spectra were recorded utilizing an AmincoBowman series 2 luminescence spectrophotometer (Aminco-Bowman AB2, SLM Aminco, Rochester, NY) within the range of 460 to 600 nm at a temperature of 25 °C. The excitation wavelength employed was 445 nm, with slit widths set at 4 nm. The emission at 485 nm, corresponding to the ThS peak observed in the presence of amyloids, was recorded. To standardize ThS fluorescence relative to bacterial concentration in both in vitro and cell-based assays, the OD600 was determined using a Shimadzu UV-2401 PC UV–vis spectrophotometer. Fluorescence normalization was executed by setting the ThS fluorescence of bacterial cells expressing the peptide or protein in the absence of the drug as 100%, while that of bacterial cells not expressing the peptide or protein was established as 0%.

[3] = biological target: eeAChE (Electrophorus electricus AChE) (Electrophorus electricus, UniProt O42275); test: Cholinesterase inhibition assay (modified Ellman's method), eeAChE; type: biochemical; conditions: for SI eeAChE: ratio eqBChE IC50/eeAChE IC50
Excerpt: (§3) Compound series A and B were initially screened for their cholinesterase activity against eeAChE (Electrophorus electricus AChE) and eqBChE (equine serum butyrylcholinesterase), using an adaptation of the Ellman’s method. […]. […] Similarly, replacing the terminal triple bond in 7l with a nitrile group reduced its activity, while replacing the O-propargyl group with an N,N-dipropargyl group in 10 enhanced the inhibition of both enzymes, particularly BChE (Table ). The installation of an additional aryl ring in 7o further improved AChE inhibition, slightly increasing selectivity toward this enzyme. […]. […]. […]. The inhibitory activity of the synthesized compounds toward eeAChE and eqBChE was evaluated spectrophotometrically through a 96-well microplate modified Ellman’s method. The solutions of both enzymes were prepared as 0.025 U/mL in phosphate buffer at pH 7, from stock solutions of 5.05 U/mL and 7.50 U/mL, respectively. The stock solutions for the target compounds (0.1 M) were prepared in dimethyl sulfoxide (DMSO). […] The reaction mixture was prepared with 100 μL of the enzyme (eeAChE or eqBChE) and 50 μL of the test compound (or DMSO/water, not exceeding 0.2% of DMSO in the wells; i.e blank samples). After 5 min of the preincubation period at 37 °C, 50 μL of ATChI or BTChI and 50 μL of DTNB were added to each well, thus initiating the enzymatic reaction. The absorbance values were measured at 415 nm, for a total of 7.5 min, at every 2.5 min, using a microplate reader (Synergy multimode reader; BioTek). […]. All experiments were performed in triplicate.

[4] = biological target: T2, Aβ42 aggregation (Homo sapiens, UniProt P05067); test: Thioflavin S assay of Aβ42 aggregation in E. coli cells overexpressing Aβ42; type: cell-based, Escherichia coli; conditions: read-out: Aβ42 inhibition %
T2 construct: expressed in transfected cells; host or cells: E. coli BL21 (DE3), pET vector
Experimental: as §1
42 Amino acid Aβ42 was cloned and overexpressed in E. coli BL21 (DE3) competent cells using the pET vector harboring the DNA sequence of Aβ42. Due to the addition of the initiation codon ATG preceding genes, the resulting overexpressed peptide contained an additional methionine residue at its N-terminus. For the preparation of overnight cultures, a colony of BL21 (DE3) cells carrying the plasmid for expression was inoculated in 10 mL of M9 minimal medium supplemented with 50 μg mL^–1 kanamycin at 37 °C. Subsequently, a 1:500 dilution of the overnight culture was added to fresh M9 minimal medium containing 50 μg mL^–1 kanamycin and 25 μM ThS. The bacterial culture was then incubated at 37 °C with agitation at 250 rpm. Upon reaching an OD600 of 0.6, 980 μL of the culture was transferred into 1.5 mL Eppendorf tubes, each containing 10 μL of the compound to be tested dissolved in DMSO and 10 μL of 100 mM isopropyl 1-thio-β-D-galactopyranoside (IPTG) or, alternatively, 10 μL of water for the noninduced controls. The final compound concentration was adjusted to […]. The samples were allowed to grow overnight at 37 °C with agitation at 1400 rpm using a Thermomixer (Eppendorf). Negative controls, representing maximum amyloid presence, utilized free DMSO.
as §2

[5] = biological target: T3, eqBChE (equine serum butyrylcholinesterase) (Equus caballus, UniProt P81908); test: Cholinesterase inhibition assay (modified Ellman's method), eqBChE; type: biochemical
T3 construct: eqBChE (equine serum butyrylcholinesterase); from tissue; host or cells: equine serum
Excerpt: as §3

T2 sequence (P05067 672-713): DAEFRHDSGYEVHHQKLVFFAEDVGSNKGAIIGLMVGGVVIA
T1 sequence (P10636 other isoform, or with tags, fused parts or gaps): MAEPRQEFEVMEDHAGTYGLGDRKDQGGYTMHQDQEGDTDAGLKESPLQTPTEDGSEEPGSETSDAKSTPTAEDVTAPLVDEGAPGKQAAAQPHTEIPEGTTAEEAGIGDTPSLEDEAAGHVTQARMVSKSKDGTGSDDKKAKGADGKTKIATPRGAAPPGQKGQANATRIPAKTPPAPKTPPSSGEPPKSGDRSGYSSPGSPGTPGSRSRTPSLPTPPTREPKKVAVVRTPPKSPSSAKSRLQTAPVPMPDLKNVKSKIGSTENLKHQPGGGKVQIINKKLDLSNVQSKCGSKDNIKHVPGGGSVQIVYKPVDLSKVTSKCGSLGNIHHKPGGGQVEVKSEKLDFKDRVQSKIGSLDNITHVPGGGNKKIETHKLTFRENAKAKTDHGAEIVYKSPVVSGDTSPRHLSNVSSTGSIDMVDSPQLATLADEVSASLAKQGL
Sequence of eeAChE (Electrophorus electricus AChE) (O42275 24-633): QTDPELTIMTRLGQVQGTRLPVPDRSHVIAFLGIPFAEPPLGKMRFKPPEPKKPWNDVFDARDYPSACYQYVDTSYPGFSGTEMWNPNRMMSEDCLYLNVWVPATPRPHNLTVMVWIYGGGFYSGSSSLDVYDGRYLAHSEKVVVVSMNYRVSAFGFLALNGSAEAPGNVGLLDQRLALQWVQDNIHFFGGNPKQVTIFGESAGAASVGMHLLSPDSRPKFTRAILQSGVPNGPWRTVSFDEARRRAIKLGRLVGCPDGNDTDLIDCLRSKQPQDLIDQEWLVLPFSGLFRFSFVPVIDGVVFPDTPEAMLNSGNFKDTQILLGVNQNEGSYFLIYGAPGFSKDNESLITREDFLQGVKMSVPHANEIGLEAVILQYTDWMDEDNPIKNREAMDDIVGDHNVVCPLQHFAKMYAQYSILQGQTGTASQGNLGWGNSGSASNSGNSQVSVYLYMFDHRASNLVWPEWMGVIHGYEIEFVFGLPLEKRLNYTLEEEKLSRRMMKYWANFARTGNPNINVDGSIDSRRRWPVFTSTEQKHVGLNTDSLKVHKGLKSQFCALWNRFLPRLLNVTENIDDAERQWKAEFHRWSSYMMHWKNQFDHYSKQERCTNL
T3 sequence (P81908 whole entry): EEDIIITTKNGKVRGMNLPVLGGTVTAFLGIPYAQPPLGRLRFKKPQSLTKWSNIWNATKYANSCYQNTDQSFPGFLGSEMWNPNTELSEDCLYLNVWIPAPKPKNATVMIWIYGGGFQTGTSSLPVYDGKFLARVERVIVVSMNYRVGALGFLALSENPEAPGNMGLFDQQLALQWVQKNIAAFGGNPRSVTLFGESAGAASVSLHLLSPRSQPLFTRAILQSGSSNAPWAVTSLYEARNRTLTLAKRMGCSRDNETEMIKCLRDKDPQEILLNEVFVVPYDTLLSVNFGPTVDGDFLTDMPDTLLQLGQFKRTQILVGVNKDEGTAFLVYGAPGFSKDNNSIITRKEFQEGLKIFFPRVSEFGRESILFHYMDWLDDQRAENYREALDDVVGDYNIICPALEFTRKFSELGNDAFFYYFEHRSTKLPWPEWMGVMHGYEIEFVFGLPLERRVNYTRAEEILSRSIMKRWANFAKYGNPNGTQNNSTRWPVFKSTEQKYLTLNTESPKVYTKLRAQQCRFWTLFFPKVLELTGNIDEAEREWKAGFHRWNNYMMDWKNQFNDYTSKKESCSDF

SMILES | Papp at 2.5 h ([1]; pig) | Prediction (penetration into the CNS) [1] | inhibition at 50 µM [2] | IC50 [3] | SI eeAChE [3] | inhibition at 50 µM [4] | IC50 [5] | Papp at 2.5 h [1]
CCn1cc(C(=O)O)c(=O)c2cc(F)c(N3CCNCC3)nc21 [Enoxacin, reference compound] | 0.15 ± 0.15 ×10⁻⁶ cm/s | – | – | – | – | – | – | –
O=c1c2ccccc2oc2cc3c(cc12)COc1c(Br)cc(Cl)cc1-3 [Compound 11k, 4-Bromo-2-chloro-6H,8H-chromeno[3,4-b]xanthen-8-one] | 2.3 ± 1.11 ×10⁻⁶ cm/s | CNS± (Uncertain BBB permeation (CNS±) 3.93 > P e > 1.82) | 52 ± 7.2% | 4.2 ± 0.9 µM | 1.48 | 46 ± 3.7% | 6.2 ± 1 µM | –
CN1C(C(=O)Nc2ccccn2)=C(O)c2ccccc2S1(=O)=O [Piroxicam, reference compound] | 0.19 ± 0.02 ×10⁻⁶ cm/s | – | – | – | – | – | – | –
O=c1c2ccccc2oc2cc3c(cc12)COc1ccc(OC(F)(F)F)cc1-3 [Compound 11h, 2-(Trifluoromethoxy)-6H,8H-chromeno[3,4-b]xanthen-8-one] | – | – | – | 4 ± 1.2 µM | 1.55 | 41 ± 6.4% | 6.2 ± 0.7 µM | –
COc1cc(OC)c2c(=O)c3cc4c(cc3oc2c1)-c1ccccc1OC4 [Compound 11e, 9,11-Dimethoxy-6H,8H-chromeno[3,4-b]xanthen-8-one] | – | – | – | – | – | 36 ± 4.4% | 9.4 ± 0.2 µM | –
COc1ccc2c(=O)c3cc4c(cc3oc2c1)-c1c(ccc2ccccc12)OC4 [Compound 12b] | – | – | 57 ± 7% | – | – | 54 ± 6.2% | – | –
COc1ccc2c(=O)c3cc4c(cc3oc2c1)-c1cc(Cl)cc(Br)c1OC4 [Compound 11s, 4-Bromo-2-chloro-11-methoxy-6H,8H-chromeno[3,4-b]xanthen-8-one] | 8.7 ± 0.61 ×10⁻⁶ cm/s | CNS+ (High BBB permeation predicted (CNS+) P e > 3.93) | 58 ± 7.1% | 1.7 ± 1.2 µM | 4.12 | 46 ± 6.3% | 7 ± 0.4 µM | –
CN(C)CCCN1c2ccccc2Sc2ccccc21 [Promazine, reference compound] | – | – | – | – | – | – | – | 15.4 ± 0.91 ×10⁻⁶ cm/s
COc1ccc2c(=O)c3cc4c(cc3oc2c1)-c1cc(F)ccc1OC4 [Compound 11q, 2-Fluoro-11-methoxy-6H,8H-chromeno[3,4-b]xanthen-8-one] | 6.04 ± 1.99 ×10⁻⁶ cm/s | CNS+ (High BBB permeation predicted (CNS+) P e > 3.93) | 55 ± 5.9% | 4.3 ± 1.5 µM | – | 50 ± 6.7% | – | –
COc1ccc2c(=O)c3cc4c(cc3oc2c1OC)-c1ccccc1OC4 [Compound 11d, 11,12-Dimethoxy-6H,8H-chromeno[3,4-b]xanthen-8-one] | – | – | – | – | – | 40 ± 6.4% | 7.1 ± 0.1 µM | –
COc1ccc2c(c1)-c1cc3oc4cccc(OC)c4c(=O)c3cc1CO2 [Compound 11m, 2,9-Dimethoxy-6H,8H-chromeno[3,4-b]xanthen-8-one] | – | – | – | – | – | 30 ± 6.6% | 7.3 ± 0.4 µM | –
COc1ccc2c(c1)-c1cc3oc4cc(OC)ccc4c(=O)c3cc1CO2 [Compound 11l, 2,11-Dimethoxy-6H,8H-chromeno[3,4-b]xanthen-8-one] | – | – | – | 4.8 ± 0.5 µM | 1.88 | 40 ± 5.1% | 9 ± 0.5 µM | –
O=c1c2ccccc2oc2cc3c(cc12)COc1ccc(F)cc1-3 [Compound 11i, 2-Fluoro-6H,8H-chromeno[3,4-b]xanthen-8-one] | – | – | 52 ± 6.3% | – | – | 47 ± 8.4% | – | –
COc1ccc2c(c1)-c1cc3oc4ccccc4c(=O)c3cc1CO2 [Compound 11f, 2-Methoxy-6H,8H-chromeno[3,4-b]xanthen-8-one] | – | – | – | 6.9 ± 1.5 µM | 0.88 | 36 ± 7.8% | 6.1 ± 0.5 µM | –
CNCCCN1c2ccccc2CCc2ccccc21 [Desipramine, reference compound] | 15.6 ± 1.78 ×10⁻⁶ cm/s | – | – | – | – | – | – | –
